Converted amounts (≈) assume the structure as drawn.
Tests used:
[1] = system: Mycobacterium tuberculosis; assay: Antimycobacterial activity against rifampicin-resistant Mycobacterium tuberculosis by agar dilution method; format: functional
[2] = system: Mycobacterium tuberculosis; assay: Antimycobacterial activity against multidrug-resistant Mycobacterium tuberculosis by agar dilution method; format: functional

## COc1ccc(C(c2ccc(OCCN(C(C)C)C(C)C)cc2)c2cccs2)cc1 (configuration not stated)
[1]
  MIC: 6.25 µM (≈ 2.65 µg/mL)
[2]
  MIC: 6.25 µM (≈ 2.65 µg/mL)
